The values below come from patent US9000028B2, “Indole and indazole compounds as an inhibitor of cellular necrosis” (LG Life Sciences Ltd., priority 2007, dated 2015).

Where only a bound is given, the exact number is not on record here.

One test has as its system primary hepatocytes isolated from rats. Briefly: Hepatocyte protective effect against substances deriving hepatocyte toxicity (WST-1 viability). The test is classed as cell-based. As to conditions: Rattus norvegicus, Hepatocyte, doxorubicin, 24-48 h, read-out: EC50, cell protective effects against doxorubicin in hepatocytes. In short, it runs like this:
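Hepatocytes from two-step collagenase perfusion (≥90% viable) seeded on collagen, pretreated 30 min with compound (5-step 2- or 3-fold dilutions from 30, 10 or 1 uM; 0.2% DMSO), then exposed to hepatotoxic agents. WST-1 absorbance at 440 nm after 24-48 h; EC50 = concentration giving 50% of maximal protection.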
`Cc1cc(NC2CCC(C(=O)O)CC2)c2[nH]c(-c3ccccc3)cc2c1` (stereo not shown) [Example 103, 4-(5-Methyl-2-phenyl-1H-indol-7-yl)amino-cyclohexane-1-carboxylic acid]: the EC50 (as a rule, the concentration needed to bring the measured effect to its halfway point) was determined as 106 nM.
The same measure, in the same setting: under `NC(=O)C1CCC(Nc2cc(Cl)cc3cc(-c4ccccc4)[nH]c23)CC1` (stereo not shown) [Example 104, 4-(5-Chloro-2-phenyl-1H-indol-7-yl)amino-cyclohexane-1-carboxylic acid amide] stands 80 nM.
With `CNC(=O)C1CCC(Nc2cc(Cl)cc3cc(-c4ccccc4)[nH]c23)CC1` (stereo not shown) [Example 105, 4-(5-Chloro-2-phenyl-1H-indol-7-yl)amino-cyclohexanecarboxylic acid methylamide], the EC50 came out at 70 nM.
The same measure, in the same setting: under `O=C(O)CNc1cc(Oc2ccccc2)cc2cc(-c3ccccc3)[nH]c12` [Example 109, 2-[(5-Phenoxy-2-phenyl-1H-indol-7-yl)amino]-acetic acid] stands 257 nM; under `CC(Nc1cc(Oc2ccccc2)cc2cc(-c3ccccc3)[nH]c12)C(=O)O` (stereo not shown) [Example 111, 2-(5-Phenoxy-2-phenyl-1H-indol-7-yl)amino-propionic acid], 257 nM; under `CC(Nc1cc(Cl)cc2cc(-c3ccccc3)[nH]c12)C(=O)O` (stereo not shown) [Example 112, 2-(5-Chloro-2-phenyl-1H-indol-7-yl)amino-propionic acid], 450 nM.
As for `Clc1cc(Nc2ccccn2)c2[nH]c(-c3ccccc3)cc2c1` [Example 113, (5-Chloro-2-phenyl-1H-indol-7-yl)-pyridin-2-yl-amine], the EC50 was found to be 350 nM.
The same measure, in the same setting: under `Cc1ccc(Nc2cc(Cl)cc3cc(-c4ccccc4)[nH]c23)nc1` [Example 114, (5-Chloro-2-phenyl-1H-indol-7-yl)-5-methyl-pyridin-2-yl-amine] stands 370 nM; under `O=C(O)[C@@H]1CCCN1C(=O)c1cc(NC2CCOCC2)c2[nH]c(-c3ccccc3)cc2c1` [Example 118, (2S)-1-[2-phenyl-7-(tetrahydropyran-4-yl)amino-1H-indole-5-carbonyl]-pyrrolidine-2-carboxylic acid], 1100 nM.
Same read-out and setting: under `O=C(Cc1cc(NC2CCCC2)c2[nH]c(-c3ccccc3)cc2c1)N1CCCC1` [Example 119, 2-(7-Cyclopentylamino-2-phenyl-1H-indol-5-yl]-1-pyrrolidin-1-yl-ethanone] stands 140 nM.
With `O=C(O)C[C@@H]1CSC(c2cc(NC3CCCC3)c3[nH]c(-c4ccccc4)cc3c2)=N1` [Example 121, 2-[(R)-2-(7-cyclopentylamino-2-phenyl-1H-indol-5-yl)-4,5-dihydro-thiazol-4-yl]-acetic acid], the EC50 worked out at 200 nM.
Turning to `O=C(O)C[C@@H]1CSC(c2cc(NCC3CCOCC3)c3[nH]c(-c4ccccc4)cc3c2)=N1` [Example 122, 2-[(R)-2-(2-phenyl-7-(tetrahydropyran-4-yl)methylamino-1H-indol-5-yl)-4,5-dihydro-thiazol-4-yl]-acetic acid], the EC50 turned out to be 200 nM.
Turning to `COC(=O)c1cccc(-c2cc3cc(Cl)cc(NC4CCCC4)c3[nH]2)c1` [Example 123, 3-(7-Cyclopentylamino-5-chloro-1H-indol-2-yl)-benzoic acid methyl ester], the EC50 turned out to be 190 nM.
Still for that read-out and setting: under `O=C(O)c1cccc(-c2cc3cc(Cl)cc(NC4CCCC4)c3[nH]2)c1` [Example 124, 3-(7-Cyclopentylamino-5-chloro-1H-indol-2-yl)-benzoic acid] stands 150 nM.
Same read-out and setting: under `OCc1cccc(-c2cc3cc(Cl)cc(NC4CCCC4)c3[nH]2)c1` [Example 125, [3-(5-Chloro-7-cyclopentylamino-1H-indol-2-yl)-phenyl]-methanol] stands 111 nM; under `OCc1cccc(-c2cc3cc(Cl)cc(NC4CCOCC4)c3[nH]2)c1` [Example 126, {3-[5-Chloro-7-(tetrahydropyran-4-yl)amino-1H-indol-2-yl]-phenyl}-methanol], 200 nM; under `O=C(O)Cc1cccc(-c2cc3cc(Cl)cc(NCC4CCOCC4)c3[nH]2)c1` [Example 127, 2-{3-[5-Chloro-7-(tetrahydropyran-4-ylmethyl)amino-1H-indol-2-yl]-phenyl}-acetic acid], 590 nM.
On to `O=C(O)Cc1cccc(-c2cc3cc(Cl)cc(NC4CCOCC4)c3[nH]2)c1` [Example 129, 2-{3-[5-Chloro-7-(tetrahydropyran-4-yl)amino-1H-indol-2-yl]-phenyl}-acetic acid], for which the EC50 was determined as 1160 nM.
Same read-out and setting: under `COC(=O)Cc1cccc(-c2cc3cc(Cl)cc(NCC4CCOCC4)c3[nH]2)c1` [Example 130, 2-{3-[5-Chloro-7-(tetrahydropyran-4-ylmethyl)amino-1H-indol-2-yl]-phenyl}-acetic acid methyl ester] stands 380 nM; under `COC(=O)Cc1cccc(-c2cc3cc(Cl)cc(NC4CCCC4)c3[nH]2)c1` [Example 131, 2-[3-(5-Chloro-7-cyclopentylamino-1H-indol-2-yl)-phenyl]-acetic acid methyl ester], 360 nM.
On the same count and under the same terms, to `OCc1ccccc1-c1cc2cc(Cl)cc(NC3CCCC3)c2[nH]1` [Example 133, [2-(5-Chloro-7-cyclopentylamino-1H-indol-2-yl)-phenyl]-methanol] belongs 150 nM.
Consider `O=C(O)c1ccccc1-c1cc2cc(Cl)cc(NC3CCCC3)c2[nH]1` [Example 134, 2-(5-Chloro-7-cyclopentylamino-1H-indol-2-yl)-benzoic acid], for which the EC50 was above 1000 nM.
Still for that read-out and setting: to `COC(=O)c1ccccc1-c1cc2cc(Cl)cc(NC3CCCC3)c2[nH]1` [Example 135, 2-(5-Chloro-7-cyclopentylamino-1H-indol-2-yl)-benzoic acid methyl ester] belongs 150 nM; to `OCc1ccc(-c2cc3cc(Cl)cc(NC4CCCC4)c3[nH]2)cc1` [Example 136, [4-(5-Chloro-7-cyclopentylamino-1H-indol-2-yl)-phenyl]-methanol], 50 nM.
In the case of `OCCc1ccc(-c2cc3cc(Cl)cc(NC4CCOCC4)c3[nH]2)cc1` [Example 137, 2-{4-[5-Chloro-7-(tetrahydropyran-4-yl)amino-1H-indol-2-yl]phenyl}-ethanol], the EC50 came out at 160 nM.
With `O=C(O)c1ccc(-c2cc3cc(Cl)cc(NC4CCCC4)c3[nH]2)cc1` [Example 138, 4-(5-Chloro-7-cyclopentylamino-1H-indol-2-yl)-benzoic acid], the EC50 was 100 nM.
On to `O=C(O)Cc1ccc(-c2cc3cc(Cl)cc(NCC4CCOCC4)c3[nH]2)cc1` [Example 139, 2-{4-[5-Chloro-7-(tetrahydropyran-4-ylmethyl)amino-1H-indol-2-yl]phenyl}-acetic acid], for which the EC50 came to 330 nM.
On the same count and under the same terms, to `O=C(O)Cc1ccc(-c2cc3cc(Cl)cc(NC4CCCC4)c3[nH]2)cc1` [Example 140, 2-[4-(5-Chloro-7-cyclopentylamino-1H-indol-2-yl)phenyl]-acetic acid] belongs 130 nM; to `O=C(O)Cc1ccc(-c2cc3cc(Cl)cc(NC4CCOCC4)c3[nH]2)cc1` [Example 141, 2-{4-[5-Chloro-7-(tetrahydropyran-4-yl)amino-1H-indol-2-yl]phenyl}-acetic acid], 460 nM.
`COC(=O)c1ccc(-c2cc3cc(Cl)cc(NC4CCCC4)c3[nH]2)cc1` [Example 142, 4-(5-Chloro-7-cyclopentylamino-1H-indol-2-yl)benzoic acid methyl ester]: the EC50 was 50 nM.
The same measure, in the same setting: to `COC(=O)c1ccc(-c2cc3cc(C)cc(NC4CCCC4)c3[nH]2)cc1` [Example 143, 4-(7-Cyclopentylamino-5-methyl-1H-indol-2-yl)benzoic acid methyl ester] belongs 66 nM; to `COC(=O)Cc1ccc(-c2cc3cc(Cl)cc(NCC4CCOCC4)c3[nH]2)cc1` [Example 144, 2-{4-[5-Chloro-7-(tetrahydropyran-4-ylmethyl)amino-1H-indol-2-yl]phenyl}-acetic acid methyl ester], 300 nM; to `COC(=O)Cc1ccc(-c2cc3cc(Cl)cc(NC4CCOCC4)c3[nH]2)cc1` [Example 146, 2-{4-[5-Chloro-7-(tetrahydropyran-4-yl)amino-1H-indol-2-yl]phenyl}-acetic acid methyl ester], 330 nM.
The same measure, in the same setting: under `CN(C)Cc1cccc(-c2cc3cc(Cl)cc(NC4CCOCC4)c3[nH]2)c1` [Example 147, [5-Chloro-2-(3-dimethylaminomethylphenyl)-1H-indol-7-yl]-(tetrahydropyran-4-yl)-amine] stands 460 nM; under `Clc1cc(NC2CCOCC2)c2[nH]c(-c3cccc(CN4CCOCC4)c3)cc2c1` [Example 148, [5-Chloro-2-(3-morpholin-4-ylmethylphenyl)-1H-indol-7-yl]-(tetrahydropyran-4-yl)-amine], 160 nM.
The same measure, in the same setting: under `Clc1cc(NC2CCOCC2)c2[nH]c(-c3cccc(CC4CCNC4)c3)cc2c1` (stereo not shown) [Example 149, [5-Chloro-2-(3-pyrrolidin-4-ylmethylphenyl)-1H-indol-7-yl]-(tetrahydropyran-4-yl)-amine] stands 550 nM; under `CC(=O)N1CCN(Cc2cccc(-c3cc4cc(Cl)cc(NC5CCOCC5)c4[nH]3)c2)CC1` [Example 150, 1-{4-[3-(5-Chloro-7-tetrahydropyran-4-ylamino-1H-indol-2-yl)-benzyl]-piperazin-1-yl}-ethanone], 160 nM.
With `O=C1CN(CCc2cccc(-c3cc4cc(Cl)cc(NC5CCOCC5)c4[nH]3)c2)CCN1` [Example 151, {5-Chloro-2-[3-(2-oxo-piperazin-4-yl)ethylphenyl]-1H-indol-7-yl}-(tetrahydropyran-4-yl)-amine], the EC50 was above 2000 nM.

The same test, now with this note: doxorubicin; rat primary hepatocytes; 24-48 h; read-out: EC50, cell protective effects against doxorubicin in hepatocytes.
For the molecule `O=C(O)Cc1cccc(-c2cc3cc(Cl)cc(NC4CCCC4)c3[nH]2)c1` [Example 128, 2-[3-(5-Chloro-7-cyclopentylamino-1-H-indol-2-yl)-phenyl]-acetic acid], the EC50 is 170 nM.
Still for that read-out and setting: to `COC(=O)Cc1cccc(-c2cc3cc(Cl)cc(NC4CCOCC4)c3[nH]2)c1` [Example 132] belongs 430 nM.
